Numbers after ± are expanded uncertainties. One block for each compound: values may come before it.
Experiments:
[1] = 298.15 K; 101.33 kPa; Liquid; Vibrating tube method
[2] = excess molar enthalpy (molar enthalpy of mixing); xn = mol fraction of the nth substance listed; conditions: 298.15 K, 101.3 kPa, Liquid, Flow calorimetry

Compound: CCC(C)CC [3-methylpentane]
- mass density [1]: 659.94 ± 0.4 kg/m3

Compound: CCC(C)CC [3-methylpentane] + CC(C)OC(C)C
- excess molar enthalpy ([2]; x2 = 0.05): 0.0101 ± 0.000263 kcal/mol
- excess molar enthalpy ([2]; x2 = 0.1): 0.0188 ± 0.000335 kcal/mol
- excess molar enthalpy ([2]; x2 = 0.1499): 0.0262 ± 0.000382 kcal/mol
- excess molar enthalpy ([2]; x2 = 0.2): 0.0325 ± 0.00043 kcal/mol
- excess molar enthalpy ([2]; x2 = 0.2503): 0.0372 ± 0.000478 kcal/mol
- excess molar enthalpy ([2]; x2 = 0.2998): 0.041 ± 0.000502 kcal/mol
- excess molar enthalpy ([2]; x2 = 0.3501): 0.0439 ± 0.000526 kcal/mol
- excess molar enthalpy ([2]; x2 = 0.3997): 0.046 ± 0.00055 kcal/mol
- excess molar enthalpy ([2]; x2 = 0.45): 0.0472 ± 0.00055 kcal/mol
- excess molar enthalpy ([2]; x2 = 0.5003): 0.0472 ± 0.00055 kcal/mol
- excess molar enthalpy ([2]; x2 = 0.5502): 0.0463 ± 0.00055 kcal/mol
- excess molar enthalpy ([2]; x2 = 0.5998): 0.0448 ± 0.000526 kcal/mol
- excess molar enthalpy ([2]; x2 = 0.65): 0.0422 ± 0.000526 kcal/mol
- excess molar enthalpy ([2]; x2 = 0.7002): 0.0387 ± 0.000478 kcal/mol
- excess molar enthalpy ([2]; x2 = 0.7501): 0.0343 ± 0.000454 kcal/mol
- excess molar enthalpy ([2]; x2 = 0.8003): 0.029 ± 0.000406 kcal/mol
- excess molar enthalpy ([2]; x2 = 0.85): 0.0224 ± 0.000359 kcal/mol
- excess molar enthalpy ([2]; x2 = 0.9): 0.0158 ± 0.000311 kcal/mol
- excess molar enthalpy ([2]; x2 = 0.95): 0.00855 ± 0.000263 kcal/mol

Compound: CCCCCCCCCC [decane]
- mass density [1]: 726.3 ± 0.41 kg/m3

Results, then the compound that gave them:

- mass density [1]: 718.7 ± 0.41 kg/m3
Compound: CC(C)OC(C)C [diisopropyl ether]

- mass density [1]: 698.72 ± 0.4 kg/m3
Compound: CCCCCCCC [octane]

Source: the NIST ThermoML archive (doi:10.1021/je030161t)
